Measured values taken from paper PMC10584170, “Machine learning-based phenotypic imaging to characterise the targetable biology of Plasmodium falciparum male gametocytes for the development of transmission-blocking antimalarials” (PLOS Pathogens, 2023).
Read-outs that look alike come from different tables or passages of the source.

Assays:
[1] = tested on: P. falciparum female gametocytes; assay: P. falciparum Dual Gamete Formation Assay (PfDGFA), female readout (Pfs25-positive female gametes); assay type: cell-based, Plasmodium falciparum NF54; conditions: for Selectivity ratio F: HepG2 Tox50 versus female IC50; for IC50: PfDGFA, 24 h incubation with gametocytes before induction, female gamete readout, read-out: Female IC50; for HitlevelF: number of replicates with >50% inhibition in the female readout
How it was run: (§1)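 First, day-14 P. falciparum NF54 gametocytes receive compound for 24 h at 37°C in 1% O2/3% CO2. Next, ookinete medium with Cy3 anti-Pfs25 triggers gametogenesis at 28°C and male exflagellation is imaged. Finally, after 24 h in the dark, Cy3-labelled females are imaged.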

[2] = tested on: P. falciparum male gametocytes; assay: P. falciparum Dual Gamete Formation Assay (PfDGFA), male readout (exflagellation); assay type: cell-based, Plasmodium falciparum NF54; conditions: for Selectivity Ratio M: HepG2 Tox50 versus male IC50; for IC50: PfDGFA, 24 h incubation with gametocytes before induction, exflagellation readout, read-out: Male IC50; for HitlevelM: number of replicates with >50% inhibition in the male readout
How it was run: as §1

HepG2 cells = assay: HepG2 cytotoxicity counter-screen; conditions: cytotoxic activity against HepG2 cells
[3] = Plasmodium falciparum, PfDGFA at 2µM, 24h preincubation with gametocytes, average of replicates, read-out: Average inhibition female (%)
[4] = Plasmodium falciparum, PfDGFA at 2µM, 24h preincubation with gametocytes, replicate R1, read-out: % inhibition female (individual replicates) R1
[5] = Plasmodium falciparum, PfDGFA at 2µM, 24h preincubation with gametocytes, replicate R2, read-out: % inhibition female (individual replicates) R2
[6] = Plasmodium falciparum, PfDGFA at 2µM, 24h preincubation with gametocytes, replicate R3, read-out: % inhibition female (individual replicates) R3
[7] = Plasmodium falciparum, PfDGFA at 2µM, 24h preincubation with gametocytes, replicate R4, read-out: % inhibition female (individual replicates) R4
[8] = Plasmodium falciparum, PfDGFA at 2µM, 24h preincubation with gametocytes, average of replicates, read-out: Average inhibition male (%)
[9] = Plasmodium falciparum, PfDGFA at 2µM, 24h preincubation with gametocytes, replicate R1, read-out: % inhibition male (individual replicates) R1
[10] = Plasmodium falciparum, PfDGFA at 2µM, 24h preincubation with gametocytes, replicate R2, read-out: % inhibition male (individual replicates) R2
[11] = Plasmodium falciparum, PfDGFA at 2µM, 24h preincubation with gametocytes, replicate R3, read-out: % inhibition male (individual replicates) R3
[12] = Plasmodium falciparum, PfDGFA at 2µM, 24h preincubation with gametocytes, replicate R4, read-out: % inhibition male (individual replicates) R4
[13] = PfDGFA at 2µM, 24h preincubation with gametocytes, average of replicates
[14] = PfDGFA at 2µM, 24h preincubation with gametocytes, replicate R1
[15] = PfDGFA at 2µM, 24h preincubation with gametocytes, replicate R3
[16] = PfDGFA at 2µM, 24h preincubation with gametocytes, replicate R4
[17] = 2µM, 24h preincubation with gametocytes prior to induction of gametogenesis, average of replicates
[18] = 2µM, 24h preincubation with gametocytes prior to induction of gametogenesis, replicate R1
[19] = 2µM, 24h preincubation with gametocytes prior to induction of gametogenesis, replicate R3
[20] = 2µM, 24h preincubation with gametocytes prior to induction of gametogenesis, replicate R4
[21] = 2µM, 24h preincubation with gametocytes, average of replicates
[22] = 2µM, 24h preincubation with gametocytes, replicate R1
[23] = 2µM, 24h preincubation with gametocytes, replicate R3
[24] = 2µM, 24h preincubation with gametocytes, replicate R4

Row | IC50 ([1]; Plasmodium falciparum) | IC50 ([2]; Plasmodium falciparum) | IC50 [2] | SMILES | Selectivity ratio F [1] | inhibition at 2 µM [1, 3] | inhibition at 2 µM [1, 4] | inhibition at 2 µM [1, 5] | inhibition at 2 µM [1, 6] | inhibition at 2 µM [1, 7] | HitlevelF ([1]; 2µM) | Selectivity Ratio M [2] | inhibition at 2 µM [2, 8] | inhibition at 2 µM [2, 9] | inhibition at 2 µM [2, 10] | inhibition at 2 µM [2, 12] | HitlevelM ([2]; 2µM) | Tox50 (HepG2 cells) | also measured
1 | > 10000 nM | 430 nM | – | COc1ccc2nc(-c3cc(-c4ccc(NC(=O)C(C)C)cc4)cnc3N)[nH]c2c1 [TCMDC-135322] | 0.84 | -9% | -9.8% | -5.2% | -4.1% | -17% | 0 | 19.53 | 72% | 76.6% | 80.3% | 52.3% | 4 | 8.38 µM | inhibition at 2 µM [2, 11]: 78.9%
2 | > 10000 nM | 540 nM | – | COc1ccc2nc(-c3cc(-c4ccc(NC(C)=O)cc4)cnc3N)[nH]c2c1 [TCMDC-135365] | 0.31 | – | – | – | – | – | – | 5.74 | – | – | – | – | – | 3.08 µM | HitlevelF ([1]; 2µM, 24h preincubation): 0; inhibition at 2 µM ([1]; Plasmodium falciparum, 2µM, 24h preincubation with gametocytes prior to induction of gametogenesis, average of replicates, read-out: Average inhibition female (%)): -1.9%; inhibition at 2 µM ([1]; Plasmodium falciparum, 2µM, 24h preincubation with gametocytes prior to induction of gametogenesis, replicate R1, read-out: % inhibition female (individual replicates) R1): -7.6%; inhibition at 2 µM ([1]; Plasmodium falciparum, 2µM, 24h preincubation with gametocytes prior to induction of gametogenesis, replicate R2, read-out: % inhibition female (individual replicates) R2): 14.6%; inhibition at 2 µM ([1]; Plasmodium falciparum, 2µM, 24h preincubation with gametocytes prior to induction of gametogenesis, replicate R3, read-out: % inhibition female (individual replicates) R3): -10.3%; inhibition at 2 µM ([1]; Plasmodium falciparum, 2µM, 24h preincubation with gametocytes prior to induction of gametogenesis, replicate R4, read-out: % inhibition female (individual replicates) R4): -4.4%; HitlevelM ([2]; 2µM, 24h preincubation): 3; inhibition at 2 µM ([2]; Plasmodium falciparum, 2µM, 24h preincubation with gametocytes prior to induction of gametogenesis, average of replicates, read-out: Average inhibition male (%)): 61.3%; inhibition at 2 µM ([2]; Plasmodium falciparum, 2µM, 24h preincubation with gametocytes prior to induction of gametogenesis, replicate R1, read-out: % inhibition male (individual replicates) R1): 62.6%; inhibition at 2 µM ([2]; Plasmodium falciparum, 2µM, 24h preincubation with gametocytes prior to induction of gametogenesis, replicate R2, read-out: % inhibition male (individual replicates) R2): 72.6%; inhibition at 2 µM ([2]; Plasmodium falciparum, 2µM, 24h preincubation with gametocytes prior to induction of gametogenesis, replicate R3, read-out: % inhibition male (individual replicates) R3): 63.7%; inhibition at 2 µM ([2]; Plasmodium falciparum, 2µM, 24h preincubation with gametocytes prior to induction of gametogenesis, replicate R4, read-out: % inhibition male (individual replicates) R4): 46.2%
3 | > 10000 nM | 10 nM | – | CCS(=O)(=O)Nc1ccc2c(c1)/C(=C(/Nc1ccc(CN3CCCCC3)cc1)c1ccccc1)C(=O)N2 [TCMDC-135395] | 0.06 | – | – | – | – | – | – | 46.97 | – | – | – | – | – | 0.56 µM | inhibition at 2 µM ([1]; Plasmodium falciparum, 2µM, 24h preincubation with gametocytes, average of replicates, read-out: Average inhibition female (%)): -5.9%; inhibition at 2 µM ([1]; Plasmodium falciparum, 2µM, 24h preincubation with gametocytes, replicate R1, read-out: % inhibition female (individual replicates) R1): -6.3%; inhibition at 2 µM ([1]; Plasmodium falciparum, 2µM, 24h preincubation with gametocytes, replicate R2, read-out: % inhibition female (individual replicates) R2): -3.4%; inhibition at 2 µM ([1]; Plasmodium falciparum, 2µM, 24h preincubation with gametocytes, replicate R3, read-out: % inhibition female (individual replicates) R3): 1.2%; inhibition at 2 µM ([1]; Plasmodium falciparum, 2µM, 24h preincubation with gametocytes, replicate R4, read-out: % inhibition female (individual replicates) R4): -15.3%; inhibition at 2 µM ([2]; Plasmodium falciparum, 2µM, 24h preincubation with gametocytes, average of replicates, read-out: Average inhibition male (%)): 91.1%; inhibition at 2 µM ([2]; Plasmodium falciparum, 2µM, 24h preincubation with gametocytes, replicate R1, read-out: % inhibition male (individual replicates) R1): 87%; inhibition at 2 µM ([2]; Plasmodium falciparum, 2µM, 24h preincubation with gametocytes, replicate R2, read-out: % inhibition male (individual replicates) R2): 89.8%; inhibition at 2 µM ([2]; Plasmodium falciparum, 2µM, 24h preincubation with gametocytes, replicate R3, read-out: % inhibition male (individual replicates) R3): 92.4%; inhibition at 2 µM ([2]; Plasmodium falciparum, 2µM, 24h preincubation with gametocytes, replicate R4, read-out: % inhibition male (individual replicates) R4): 95.2%
4 | – | – | 1980 nM | COc1cc(NC(=O)c2sc(-c3ccc(Cl)cc3)cc2NC(=O)c2ccncc2)ccc1OCCN1CCCC1 [TCMDC-135398] | 2.54 | – | – | – | – | – | 4 | 3.15 | – | – | – | – | 3 | 6.24 µM | Average inhibition female (%) [1, 13]: 76.4%; % inhibition female (individual replicates) R1 [1, 14]: 76.9%; % inhibition female (individual replicates) R3 [1, 15]: 72.6%; % inhibition female (individual replicates) R4 [1, 16]: 86.6%; IC50 [1]: 2460 nM; Average inhibition male (%) [2, 13]: 74.1%; % inhibition male (individual replicates) R1 [2, 14]: 92.1%; % inhibition male (individual replicates) R3 [2, 15]: 87.5%; % inhibition male (individual replicates) R4 [2, 16]: 101.9%
5 | – | – | 390 nM | O=C(Nc1cccc(-c2nn3ncccc3c2-c2ccnc(Nc3cccc(-c4cnco4)c3)n2)c1)c1c(F)cccc1F [TCMDC-135550] | 0.18 | – | – | – | – | – | – | 4.7 | – | – | – | – | – | 1.85 µM | Average inhibition female (%) [1, 17]: -4.1%; % inhibition female (individual replicates) R1 [1, 18]: -3.8%; % inhibition female (individual replicates) R3 [1, 19]: -14.6%; % inhibition female (individual replicates) R4 [1, 20]: 0.16%; HitlevelF ([1]; 2µM, 24h preincubation): 0; Average inhibition male (%) [2, 17]: 55.8%; % inhibition male (individual replicates) R1 [2, 18]: 81.6%; % inhibition male (individual replicates) R3 [2, 19]: 54.6%; % inhibition male (individual replicates) R4 [2, 20]: 6.2%; HitlevelM ([2]; 2µM, 24h preincubation): 3

Continued, compound first:

Row | SMILES | IC50 ([1]; Plasmodium falciparum) | IC50 ([2]; Plasmodium falciparum) | IC50 [2] | Selectivity ratio F [1] | inhibition at 2 µM [1, 3] | inhibition at 2 µM [1, 4] | inhibition at 2 µM [1, 5] | inhibition at 2 µM [1, 6] | inhibition at 2 µM [1, 7] | HitlevelF ([1]; 2µM) | Selectivity Ratio M [2] | inhibition at 2 µM [2, 8] | inhibition at 2 µM [2, 9] | inhibition at 2 µM [2, 10] | inhibition at 2 µM [2, 12] | HitlevelM ([2]; 2µM) | Tox50 (HepG2 cells) | also measured
6 | COCCN(C)CCCOc1cc2c(cc1OC)ncn2-c1cc(OCc2ccccc2C(F)(F)F)c(C(N)=O)s1.Cl [TCMDC-135214] | > 10000 nM | 620 nM | – | 1.36 | 20.2% | 22.9% | 10% | 11% | 36.6% | 0 | 22.02 | 64.6% | 90.7% | 80.9% | 20.9% | 3 | 13.65 µM | inhibition at 2 µM [2, 11]: 65.9%
7 | COc1cc(Nc2nccc(-c3c(-c4cccc(NC(=O)c5c(F)cccc5F)c4)nn4ncccc34)n2)cc(OC)c1OC [TCMDC-135684] | – | – | 270 nM | 0.12 | – | – | – | – | – | – | 4.28 | – | – | – | – | – | 1.17 µM | Average inhibition female (%) [1, 21]: 9.6%; % inhibition female (individual replicates) R1 [1, 22]: 8.4%; % inhibition female (individual replicates) R3 [1, 23]: 15.7%; % inhibition female (individual replicates) R4 [1, 24]: 19.8%; Average inhibition male (%) [2, 21]: 97.0%; % inhibition male (individual replicates) R1 [2, 22]: 96.5%; % inhibition male (individual replicates) R3 [2, 23]: 98.0%; % inhibition male (individual replicates) R4 [2, 24]: 98.2%
8 | CCn1c(-c2nonc2N)nc2c(-c3ccccc3)ncc(OCCCNCCCN3CCOCC3)c21.O=C(O)C(F)(F)F [TCMDC-135858] | 6490 nM | 1370 nM | – | 2.48 | 23% | 22.7% | 28.7% | 18.7% | 21.9% | 0 | 11.73 | 85.1% | 80.4% | 88.6% | 86.5% | 3 | 16.12 µM | –
9 | CS(=O)(=O)O.FC(F)(F)COc1c(CCNCCCCNCCc2ccc3ccccc3c2OCC(F)(F)F)ccc2ccccc12 [TCMDC-137169] | – | – | 810 nM | 2.09 | – | – | – | – | – | – | 3.23 | – | – | – | – | – | 2.63 µM | Average inhibition female (%) [1, 21]: 87.0%; % inhibition female (individual replicates) R1 [1, 22]: 87.1%; % inhibition female (individual replicates) R3 [1, 23]: 97.3%; % inhibition female (individual replicates) R4 [1, 24]: 102.2%; IC50 [1]: 1260 nM; Average inhibition male (%) [2, 21]: 91.7%; % inhibition male (individual replicates) R1 [2, 22]: 101.1%; % inhibition male (individual replicates) R3 [2, 23]: 96.8%; % inhibition male (individual replicates) R4 [2, 24]: 99.1%
